Experimental data from publication PMC7767381, “Exploring the Anti-Cancer Mechanism of Novel 3,4′-Substituted Diaryl Guanidinium Derivatives” (Pharmaceuticals, 2020).
Values joined by “and” are separate entries in the source; they are usually repeats but may differ in a detail not shown here. Identical values can stand only once.

Tested on: HL-60 cells
Experiment: Annexin V-FITC/PI flow cytometry apoptosis assay in HL-60
Type: cell-based, human
Details: 48 h; for induction of apoptosis: annexin V-FITC/PI; for viability at 5 µM: HL-60, 5 μM
Method: We have previously reported that compound 1 induces 68.9 ± 0.1% apoptosis in HL-60 cells at a 10 μM concentration after 48 h. Accordingly, in order to evaluate the apoptotic effect of the most relevant derivatives (2, 3, and 4), HL-60 cells were treated with these compounds (at 5 µM, 5 µM, and 4 µM concentration, respectively) for 48 h, stained with annexin V-FITC/PI and analysed using flow cytometry (Figure 5).
Apoptosis was analysed using annexin V fluorescein isothiocyanate (FITC) and propidium iodide (PI). HL-60 cells were seeded at a density of 2 × 10^5 cells/mL in 12 well plates. Cells were then treated with either vehicle (0.5% ethanol), 2 (5 µM), 3 (5 µM), or 4 (4 µM) for 48 h. Following treatment, HL60 cells were collected and washed with annexin V binding buffer (5 mM HEPES, 70 mM NaCl, 1.25 mM CaCl2 pH 7.4) and stained with annexin V-FITC (iQ Corporation, Groningen, The Netherlands) for 20 min. Following washing with annexin V binding buffer, cells were resuspended in PI (0.5 µg/mL) in binding buffer and analysed on BD FACS Canto II flow cytometer (BD Sciences) using FloJo software (Ashland, OR, USA).
Figure 5 Annexin V-FITC vs. PI flow cytometry analysis of HL-60 cancer cells treated with compounds 3 (5 μM), 2 (5 μM) and 4 (4 μM) for 48 h. These figures are representative of three independent experiments. The viable cells, early apoptotic, necrotic and late apoptotic cells are represented by the lower left, lower right, upper left and upper right quadrants, respectively. TEXT PRINTED IN THE PICTURE: 3: 2.45; 32.6; 27.1; 37.8 | 2: 0.56; 11.3; 78.1; 9.96 | 4: 1.09; 40.2; 12.4; 46.2 DOUBTS OF THE COPYIST ABOUT THIS PICTURE: All quadrant numbers are in very small print with no measure or unit; they are listed in the order upper left, upper right, lower left, lower right / 3, upper right quadrant: 32.6, partly covered by data points, 3/8 and 6/8 uncertain / 3, lower right quadrant: 37.8, partly covered by data points, 37.8 or 37.6 / 3, lower left quadrant: 27.1, small print / 2, lower left quadrant: 78.1 or 76.1 / 2, lower right quadrant: 9.96 or 9.95 or 9.98 / 4, upper right quadrant: 40.2, partly covered by data points / 4, lower right quadrant: 46.2 or 48.2, partly covered by data points / The Control and Vehicle plots also print quadrant numbers (Control: 0.16, 1.41, 97.7, 0.77; Vehicle: 0.088, 1.65, 97.3, 0.94); they are not listed because they are not test substances […]
Apoptosis was analysed using annexin V fluorescein isothiocyanate (FITC) and propidium iodide (PI). HL-60 cells were seeded at a density of 2x10^5 cells/mL in 12 well plates. Cells were then treated with either vehicle (0.5% ethanol), 2 (5 µM), 3 (5 µM) or 4 (4 µM) for 48 hours.
Following treatment, HL60 cells were collected and washed with annexin V binding buffer (5 mM HEPES, 70 mM NaCl, 1.25 mM CaCl2 pH 7.4) and stained with annexin V -FITC (iQ Corporation, Groningen, The Netherlands) for 20 minutes. Following washing with annexin V binding buffer, cells were resuspended in PI (0.5 µg/mL) in binding buffer and analysed on BD FACS Canto II flow cytometer (BD Sciences) using FloJo software (Ashlan d, Oregon, United […]
Figure S13. Compounds 3 and 4 promote strong apoptosis when inhibiting HL-60 cell viability.
For flow cytometry, HL60 cells were seeded at a density of 2x10^5 cells/mL in 12 well plates.
Cells were then treated with either vehicle (0.5% ethanol), 2 (5 µM), 3 (5 µM) or 4 (4 µM) for 48 hours. After 48 hours, cells were collected and stained with annexin V – FITC and propidium iodide. Samples were analysed by flow cytometry using the BD FACs Canto II cytometer.
Columns and bars represent the mean ± S.D. of 3 independent experiments. Statistical analysis was performed using one-way ANOVA with Dunnett’s multiple comparisons test comparing vehicle to drug treated samples. *p<0.05 and ***p<0.001.
(1 picture or pasted object on this page, not shown here)

[1] = Homo sapiens, representative plot, read-out: viable cells (lower left quadrant)

| SMILES | induction of apoptosis (HL-60, 5 µM) | viability at 5 µM [1] | induction of apoptosis (HL-60, 4 µM) | viability at 4 µM (Homo sapiens, HL-60, 4 μM, representative plot, read-out: viable cells (lower left quadrant)) |
| --- | --- | --- | --- | --- |
| Cl.N=C(N)Nc1ccc(Oc2cccc(Nc3ccc(Cl)c(C(F)(F)F)c3)c2)cc1 [Compound 3, 1-(4-(3-((4-Chloro-3-(trifluoromethyl)phenyl)amino)phenoxy)phenyl)guanidine hydrochloride] | 82.5 ± 11.3% and 82% | 27.1% |  |  |
| Cl.N=C(N)Nc1ccc(Oc2cccc(Nc3ccc(Cl)c(C(F)(F)F)c3)c2)cn1 [Compound 4, 1-(5-(3-((4-Chloro-3-(trifluoromethyl)phenyl)amino)phenoxy)pyridin-2-yl)guanidine hydrochloride] |  |  | 92.7 ± 5.5% and 92% | 12.4% |
| Cl.Cl.N=C(N)Nc1ccc(Oc2cccc(NC(=N)Nc3ccc(Cl)c(C(F)(F)F)c3)c2)cn1 [Compound 2, 1-(4-Chloro-3-(trifluoromethyl)phenyl)-3-(3-((6-guanidinopyridin-3-yl)oxy)phenyl) guanidine dihydrochloride] | 30.7 ± 11.6% and ~30% | 78.1% |  |  |
